Experimental data as given in article PMC7051184, “C9orf72 arginine-rich dipeptide repeat proteins disrupt karyopherin-mediated nuclear import” (eLife, 2020).

Assays:
Assay type in all cases: biochemical, human
transportin-1 (Tnpo1) = experiment: DPR aggregation assay and western blot, Tnpo1; details: Fig 5-suppl 3C, normalized to untreated HEK on same membrane;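 also: RNA rows contain added 20 µg total HEK RNA while no-RNA rows lack it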
Protocol: (§1) Supernatant and pellet fractions (for all 5 DPRs, and control/buffer only) were prepared as in the nuclear transport assays, by adding 100 µM 10mers to 2.5 mg/ml HEK lysate in 100 µL TRB. Supernatants were boiled in Laemmli (BioRad) for 5 min. Pellets were boiled for 15 min followed by sonication in order to fully disperse aggregates for SDS-PAGE. Equal volumes of supernatant and pellet fractions were run on 4–12% Bolt Bis-Tris Plus gels (ThermoFisher), transferred to nitrocellulose membrane using an iBlot2 dry blotting system (ThermoFisher). Protein loading was analyzed by BLOT-Faststain (G-biosciences, St. Louis, MO), according to the manufacterers’ instructions. For immunodetection, membranes were blocked with 5% non-fat milk in TBST and probed by sequential incubation with the primary antibodies as detailed in the table below. Detection was by HRP-conjugated secondary antibodies/chemiluminescence using an ImageQuant LAS 4000 system (GE, Chicago, IL). To permit sequential probing of membranes without stripping, signals were quenched by incubation with prewarmed 30% H20_2 for 20 min ([Sennepin et al., 2009]). Band intensities were measured by ImageQuant software. For pellet vs. supernatant fractions, all were expressed as percent untreated control. For blots in Figure 1E, samples were run on 4–20% SDS PAGE minigels (ThermoFisher) and blotted to PVDF membranes (Immun-Blot PVDF, Bio-Rad) using the Bio-Rad TransBlot Turbo apparatus, and probed as above. The chemiluminescence signal was captured with a Bio-Rad ChemiDoc XRS+ digital imaging system.

importin β = experiment: DPR aggregation assay and western blot, ImpB; details: Fig 5-suppl 3C, normalized to untreated HEK on same membrane;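 also: RNA rows contain added 20 µg total HEK RNA while no-RNA rows lack it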
Protocol: as §1

RanGAP1 = experiment: DPR aggregation assay and western blot, RanGAP1; details: Fig 5-suppl 3C, normalized to untreated HEK on same membrane
Protocol: as §1

TDP-43 = experiment: DPR aggregation assay and western blot, TDP-43; details: Fig 5-suppl 3C, normalized to untreated HEK on same membrane
Protocol: as §1

RPS6 = experiment: DPR aggregation assay and western blot, RPS6; details: Fig 5-suppl 3C, normalized to untreated HEK on same membrane;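 also: RNA rows contain added 20 µg total HEK RNA while no-RNA rows lack it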
Protocol: as §1

[1] = DPR aggregate formation in HEK lysate (pellet vs. supernatant, total protein); details: transport assay lysate
Protocol: as §1, with “For blots in Figure 1E, samples were run on 4–20% SDS PAGE minigels (ThermoFisher) and blotted to PVDF membranes (Immun-Blot PVDF, Bio-Rad) using the Bio-Rad TransBlot Turbo apparatus, and probed as above. The chemiluminescence signal was captured with a Bio-Rad ChemiDoc XRS+ digital imaging system.” left out

Rps25 = experiment: DPR aggregation assay and western blot, Rps25; details: Fig 5-suppl 3C, normalized to untreated HEK on same membrane;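 also: RNA rows contain added 20 µg total HEK RNA while no-RNA rows lack it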
Source text: Supplement elife-51685-fig5-data1.xlsx, sheet "Figure 5-figure suppl 3" | column: Rps25

[2] = Pellet, no RNA (Untreated), blot 1
[3] = Pellet, no RNA (Untreated), blot 2
[4] = Supernatant, no RNA (Untreated), blot 1
[5] = Supernatant, no RNA (Untreated), blot 2

Substance: GA10: Synthetic 10-mer GA dipeptide repeat with C-terminal lysine and cysteine (GAGAGAGAGAGAGAGAGAGAKC)
- TNPO1 band density, % untr control (transportin-1 (Tnpo1); Pellet, RNA, blot 1): 84.30%
- TNPO1 band density, % untr control (transportin-1 (Tnpo1); Pellet, RNA, blot 2): 68.79%
- TNPO1 band density, % untr control (transportin-1 (Tnpo1); [2]): 107.97%
- TNPO1 band density, % untr control (transportin-1 (Tnpo1); [3]): 107.46%
- TNPO1 band density, % untr control (transportin-1 (Tnpo1); Supernatant, RNA, blot 1): 64.64%
- TNPO1 band density, % untr control (transportin-1 (Tnpo1); Supernatant, RNA, blot 2): 100.29%
- TNPO1 band density, % untr control (transportin-1 (Tnpo1); [4]): 66.29%
- TNPO1 band density, % untr control (transportin-1 (Tnpo1); [5]): 92.01%
- ImpB band density, % untr control (importin β; Pellet, RNA, blot 1): 90.07%
- ImpB band density, % untr control (importin β; Pellet, RNA, blot 2): 91.42%
- ImpB band density, % untr control (importin β; [2]): 90.15%
- ImpB band density, % untr control (importin β; [3]): 102.12%
- ImpB band density, % untr control (importin β; Supernatant, RNA, blot 1): 78.71%
- ImpB band density, % untr control (importin β; Supernatant, RNA, blot 2): 123.36%
- ImpB band density, % untr control (importin β; [4]): 89.10%
- ImpB band density, % untr control (importin β; [5]): 114.58%
- RanGAP1 band density, % untr control (RanGAP1; Pellet, RNA, blot 1): 93.93%
- RanGAP1 band density, % untr control (RanGAP1; Pellet, RNA, blot 2): 89.10%
- RanGAP1 band density, % untr control (RanGAP1; [2]): 87.31%
- RanGAP1 band density, % untr control (RanGAP1; [3]): 80.44%
- RanGAP1 band density, % untr control (RanGAP1; Supernatant, RNA, blot 1): 83.26%
- RanGAP1 band density, % untr control (RanGAP1; Supernatant, RNA, blot 2): 119.18%
- RanGAP1 band density, % untr control (RanGAP1; [4]): 131.44%
- RanGAP1 band density, % untr control (RanGAP1; [5]): 105.30%
- TDP43 band density, % untr control (TDP-43; Pellet, RNA, blot 1): 112.48%
- TDP43 band density, % untr control (TDP-43; Pellet, RNA, blot 2): 99.51%
- TDP43 band density, % untr control (TDP-43; [2]): 116.61%
- TDP43 band density, % untr control (TDP-43; [3]): 120.53%
- TDP43 band density, % untr control (TDP-43; Supernatant, RNA, blot 1): 88.02%
- TDP43 band density, % untr control (TDP-43; Supernatant, RNA, blot 2): 100.78%
- TDP43 band density, % untr control (TDP-43; [4]): 86.33%
- TDP43 band density, % untr control (TDP-43; [5]): 98.73%
- Rps6 band density, % untr control (RPS6; Pellet, RNA, blot 1): 45.85%
- Rps6 band density, % untr control (RPS6; Pellet, RNA, blot 2): 60.48%
- Rps6 band density, % untr control (RPS6; [2]): 113.52%
- Rps6 band density, % untr control (RPS6; [3]): 119.87%
- Rps6 band density, % untr control (RPS6; Supernatant, RNA, blot 1): 64.65%
- Rps6 band density, % untr control (RPS6; Supernatant, RNA, blot 2): 73.01%
- Rps6 band density, % untr control (RPS6; [4]): 90.06%
- Rps6 band density, % untr control (RPS6; [5]): 67.32%
- Aggregate formation in cell lysate [1]: did not observe GA-induced aggregate formation
- Rps25 band density, % untr control (Rps25; Pellet, RNA, blot 1): 48.52%
- Rps25 band density, % untr control (Rps25; Pellet, RNA, blot 2): 61.57%
- Rps25 band density, % untr control (Rps25; [2]): 84.83%
- Rps25 band density, % untr control (Rps25; [3]): 128.35%
- Rps25 band density, % untr control (Rps25; Supernatant, RNA, blot 1): 121.04%
- Rps25 band density, % untr control (Rps25; Supernatant, RNA, blot 2): 82.85%
- Rps25 band density, % untr control (Rps25; [4]): 112.04%
- Rps25 band density, % untr control (Rps25; [5]): 76.84%
